Experimental data from US8853227B2, “Methotrexate adjuvants to reduce toxicity and methods for using the same” (Tosk, Incorporated, priority 2008, dated 2014).
pIC50: −log10 of the molar value.

Key:
CCRF-CEM human tumors = assay: Mouse Study IV (xenograft with CCRF-CEM implants); type: in vivo, SCID mice; conditions: MTX 7.5 mg/kg/injection + TK-112690 30 mg/kg ±3 hrs ip; day 27; p=1
Description: In this study, n=10 SCID mice per dose group were treated with CCRF-CEM human tumors and the tumors allowed to grow to a size of approximately 100 mg. Then the animals were treated by intraperitoneal (ip) injection with either control 20% DMSO/80% PBS (1×/day)×5 days (Group 1), MTX 7.5 mg/kg/injection (1×/day)×5 days (Group 2) or MTX 7.5 mg/kg/inj. (1×/day)×5 days+TK-112690 30 mg/kg/inj.±3 hrs (group 3). The Figure provides tumor sizes in each of the 3 groups on Day 27 of the study.
A xenograft study was performed to analyze the effect of TK-112690. administration on the in vivo efficacy of MTX against a human cancer. Human CCRF-CEM (T-ALL) cells were implanted subcutaneously into SCID mice. Tumor volumes were recorded on a regular basis, and once tumors had become established, treatment was given. […] All treatments were given ip, and TK-112690 was give 3 hours prior to and 3 hours after MTX administration.

[1] = biological target: human small intestinal UPase enzyme (Homo sapiens (Human), UniProt Q16831); assay: UPase inhibition in human small intestinal tissue homogenate (HPLC of uracil); type: biochemical; conditions: 5 mM uridine, 37° C., pH 7.3
Description: A range of TK-112690 doses were studied for the their ability to prevent metabolic breakdown of uridine through the in vitro inhibition of mouse and human small intestinal UPase enzyme. UPase activity was determined by HPLC analysis using UV detection of uracil concentration (UPase catabolizes uridine into uracil and ribose-1-phosphate). The UPase enzyme material was prepared from homogenized mouse and human being small intestinal tissue. TK-112690 was dissolved in water (50 mg/ml) and analyzed for UPase inhibition in aqueous solution containing 5 mM uridine, 0.01 M Tris, 0.01 M phosphate, 1 mM EDTA, and 1 mM DTT. Reactions were performed at 37° C. at pH of 7.3.
[…] inhibition of mouse and human UPase was determined from measurements of uracil determined in homogenates by reverse phase HPLC using UV detection. […]
The aim of this study was to evaluate TK-112690 in vivo as an inhibitor of uridine phosphorylase (UPase) enzyme activity. […] Detection of UPase activity was determined by HPLC analysis using UV detection of uracil concentration (UPase catabolizes uridine into uracil and ribose-1-phosphate).
The UPase enzyme material was prepared from homogenized mouse and human being small intestinal tissue. TK-112690 was dissolved in water (50 mg/ml) and analyzed for UPase inhibition in aqueous solution containing 5 mM uridine, 0.01 M Tris, 0.01 M phosphate, 1 mM EDTA, and 1 mM DTT. […]

CCRF-CEM cells = assay: Cell Culture Study I (MTX cytotoxicity, alamarBlue); type: cell-based, human
Description: In this study, CCRF-CEM cells purchased from ATCC were cultured and then 12 tubes containing approximately 10^6 cells each treated for 72 hours with media (Group1), MTX 0.03 μM (Group2), MTX+Leucovorin 1 μM (Group3), MTX+Leucovorin 10 μM (Group4), MTX+Leucovorin 100 μM (GroupS), MTX+TK-112690 1 μM (Group6), MTX+TK-112690 10 μM (Group7) and MTX+TK-112690 100 μM (Group8). […] Viability was measured as percent reduction of alamarBlue absorbance.
The tumor cell line CCR-CEM (human T-cell acute lymphoblastic leukemia) is obtained from American Type Culture Collection (CRL-1593.2) and cultured in accordance with the product information sheet with the following exceptions: 55.3 cm^2 Petri dishes are used instead of 75 cm^2 culture flasks, and 1% penicillin-streptomycin solution (HyClone SV30010) and 1% GlutaMAX™ (Gibco 35050) are added to the culture medium.
TK-112690, the representative 2,2′-anhydropyrimidine test article, is dissolved in 40% DMSO, sterile filtered then diluted with sterile distilled water to obtain initial working solutions of 10, 100 and 1000 μM. In testing, a 100 fold dilution is made in culture media to give final assay concentrations of 0.1, 1.0 and 10.0 μM. MTX (SAFC Biosciences M8407) is dissolved in sterile distilled water and 5 N NaOH then sterile filtered. The final pH of the stock solution is 7.8 and working solutions are made with sterile distilled water for final assay concentrations of 30, 3.0, 0.3, 0.03 and 0.003 μM. Leucovorin (Sigma F-7878) is dissolved in sterile distilled water, sterile filtered and diluted with sterile distilled water for final assay concentrations of 0.1, 1.0 and 10.0 μM.
Aliquots of 100 μL of cell suspension are plated in 96 well microtiter plates (Corning costar 3595) and placed in an atmosphere of 5% CO2 at 37° C. (Fisher Scientific Isotemp 3500 CO2 Incubator). After 24 hours, 100 μL of growth medium [RPMI-1640 w/L-glutamine (Cambrex 12-702Q) fortified with sodium pyruvate (HyClone SH30239.01), fetal bovine serum (SAFC Biosciences 12107C) and HEPES buffer (Gibco 15630)] and 2 μL of test solution or vehicle are added respectively per well and the plates incubated for an additional 72 hour incubation. MTX is evaluated at concentrations of 0.003, 0.03, 0.30 and 3.0 μM alone or in combination with either a 2,2′-anhydropyrimidine test article or Leucovorin at concentrations of 0.1, 1.0, 10.0 μM. At the end of incubation, the efficacy of anti-cell proliferation is determined by optical absorbance at A=570 and 600 nm [Spectramax 250 (Molecular Devices)] in accordance with the standard alamarBlue™ (Biosource) protocol.
Group 1 is the cell control (media treated). Group 2 corresponds to cells treated with 0.03 μM MTX. Group 3 are cells treated with 1.0 μM Leucovorin. Group 4 are cells treated with 0.1 μM Leucovorin. […]

Chain of human small intestinal UPase enzyme (Q16831 whole entry): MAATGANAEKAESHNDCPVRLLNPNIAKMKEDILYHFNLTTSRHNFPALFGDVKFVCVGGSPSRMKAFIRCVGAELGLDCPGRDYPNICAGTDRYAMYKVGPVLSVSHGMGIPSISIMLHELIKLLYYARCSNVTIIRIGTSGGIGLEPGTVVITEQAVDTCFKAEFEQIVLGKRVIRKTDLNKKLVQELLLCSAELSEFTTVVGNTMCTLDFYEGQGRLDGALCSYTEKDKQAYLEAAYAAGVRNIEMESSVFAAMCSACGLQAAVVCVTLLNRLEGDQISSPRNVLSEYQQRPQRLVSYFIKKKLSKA

## Cc1cn2c(nc1=O)O[C@H]1[C@H](O)[C@@H](CO)O[C@H]12 [TK-112690, 2,2′-anhydro-5-methyluridine]
CCRF-CEM human tumors
  tumor volume, MTX+TK-112690 versus MTX: not significantly different
[1]
  pIC50: 4.70
CCRF-CEM cells; 0.03 μM MTX + TK-112690, 72 hours, p<0.844, 0.918, 1.000
  cell viability, MTX+TK-112690 versus MTX alone: not different
CCRF-CEM cells; without MTX, 72 hours
  cell viability, test article alone versus control: not statistically different than control
